Patent US20130252247A1, “KIT FOR SCREENING FOR SKIN-ACTIVATING SUBSTANCES AND COMPRISING THE KLOTHO GENE, AND METHOD FOR SCREENING FOR SKIN-ACTIVATING SUBSTANCES USING THE SAME” (Amorepacific Corporation, priority 2011, published 2013)

Tested on: Klotho
Assay: Klotho expression in keratinocytes treated with retinoic acid and retinol, quantitative real-time PCR
Assay type: cell-based, human
Method: In order to examine whether Klotho protein is expressed in skin cells, primers of SEQ ID NOS: 1 and 2, which can amplify Klotho gene (NCBI accession No. NM-004795), were constructed. Then, RT-PCR was performed using the primer set and a probe of SEQ ID NO: 3 (TaqMan™ fluorogenic probe) in order to detect Klotho mRNA in the cDNA of keratinocytes (NHK), fibroblasts (NHF), NHM-promoblack (Normal Human Epidermal Melanocytes (NHEM) juvenile foreskin, Promocell: melanocytes derived from dark-skinned persons), NHM-DP (NHM-dark pigment, Invitrogen: melanocytes derived from dark-skinned persons) and NHM-MP (NHM-moderate pigment, Invitrogen: melanocytes derived from Asian). The PCR reaction was performed for 35 cycles, each consisting of denaturation at 94° C. for 30 sec, annealing at 55° C. for 30 sec, and extension at 72° C. for 60 sec. As a positive control, the cDNA of human embryonic kidney cells (HEK293) known to express Klotho gene was used.
In order to examine the effects of retinoic acid and retinol (known as anti-aging substances) on the expression of Klotho in keratinocytes, quantitative real time PCR was performed under the same conditions as described in Test Example 1, and the expression levels of Klotho protein were examined at 2 days and 8 days after treatment of the cells with each of 0.1 μM and 1 μM of retinoic acid and 1 μM and 10 μM of retinol.

Compound: CC1=C(/C=C/C(C)=C/C=C/C(C)=C/CO)C(C)(C)CCC1 [retinol]
- expression level of Klotho protein (keratinocytes, 8 days after treatment, 0.1 μM and 1 μM retinoic acid, 1 μM and 10 μM retinol, FIG. 3): significantly increased
- expression of Klotho protein (summary statement, found using the kit): increased
